Source: PubChem BioAssay (NCI)
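Results reflect a 48-hour exposure of cells in 96-well plates to compound at five concentrations. GI50 = concentration required for 50% inhibition of growth. TGI denotes the concentration required for complete inhibition of growth.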

Columns and labels:
Assay in all cases: inhibition of tumour cell growth, NCI panel, 48 h
[1] = test system: 786-0 renal
[2] = test system: A498 renal
[3] = test system: A549 NSCLC
[4] = test system: ACHN renal
[5] = test system: BT-549 breast
[6] = test system: CAKI-1 renal
[7] = test system: CCRF-CEM leukemia
[8] = test system: COLO 205 colon
[9] = test system: DU-145 prostate
[10] = test system: EKVX NSCLC
[11] = test system: HCC-2998 colon
[12] = test system: HCT-116 colon
[13] = test system: HCT-15 colon
[14] = test system: HL-60(TB) leukemia
[15] = test system: HOP-62 NSCLC
[16] = test system: HOP-92 NSCLC
[17] = test system: HS 578T breast
[18] = test system: HT29 colon
[19] = test system: IGROV1 ovarian
[20] = test system: K-562 leukemia
[21] = test system: KM12 colon
[22] = test system: LOX IMVI melanoma
[23] = test system: MALME-3M melanoma
[24] = test system: MCF7 breast
[25] = test system: MDA-MB-231 breast
[26] = test system: MDA-MB-435
[27] = test system: MOLT-4 leukemia
[28] = test system: NCI-H226 lung
[29] = test system: NCI-H23 lung
[30] = test system: NCI-H460 lung
[31] = test system: NCI-H522 lung
[32] = test system: NCI/ADR-RES ovarian
[33] = test system: OVCAR-3 ovarian
[34] = test system: OVCAR-4 ovarian
[35] = test system: OVCAR-5 ovarian
[36] = test system: OVCAR-8 ovarian
[37] = test system: PC-3 prostate
[38] = test system: RPMI-8226 leukemia
[39] = test system: RXF 393 renal
[40] = test system: SF-268 CNS
[41] = test system: SF-295 CNS
[42] = test system: SF-539 CNS
[43] = test system: SK-MEL-2 melanoma
[44] = test system: SK-MEL-28 melanoma
[45] = test system: SK-MEL-5 melanoma
[46] = test system: SK-OV-3 ovarian
[47] = test system: SN12C renal
[48] = test system: SNB-19 CNS
[49] = test system: SNB-75 CNS
[50] = test system: SR leukemia
[51] = test system: SW-620 colon
[52] = test system: T-47D breast
[53] = test system: TK-10 renal
[54] = test system: U251 CNS
[55] = test system: UACC-257 melanoma
[56] = test system: UACC-62 melanoma
[57] = test system: UO-31 renal
[58] = test system: M14 melanoma

With `C=CCc1cc(O)ccc1O` the GI50 [1] was 22.8 µM, the TGI [1] was over 100 µM and the GI50 [2] was over 100 µM. It also gave a TGI [2] of over 100 µM, a GI50 [3] of over 100 µM and a TGI [3] of over 100 µM. For the same compound, the GI50 [4] was 15.1 µM, the TGI [4] was 28.3 µM and the GI50 [5] was 6.16 µM. It also gave a TGI [5] of over 100 µM, a GI50 [6] of 23.9 µM and a TGI [6] of over 100 µM. The GI50 [7] was 2340 nM, the TGI [7] was 14.5 µM and the GI50 [8] was over 100 µM. For the same compound, the TGI [8] was over 100 µM, the GI50 [9] was 85 µM and the TGI [9] was over 100 µM. The GI50 [10] was 41.1 µM, the TGI [10] was over 100 µM and the GI50 [11] was over 100 µM. For the same compound, the TGI [11] was over 100 µM, the GI50 [12] was 16.8 µM and the TGI [12] was 31.1 µM. It also gave a GI50 [13] of 36 µM, a TGI [13] of over 100 µM and a GI50 [14] of 2530 nM. For the same compound, the TGI [14] was 7.04 µM, the GI50 [15] was 29.8 µM and the TGI [15] was over 100 µM. It also gave a GI50 [16] of 42.4 µM, a TGI [16] of over 100 µM and a GI50 [17] of 23.2 µM. It also gave a TGI [17] of over 100 µM, a GI50 [18] of 80.2 µM and a TGI [18] of over 100 µM. The GI50 [19] was 43.4 µM, the TGI [19] was over 100 µM and the GI50 [20] was 17.7 µM. The TGI [20] was over 100 µM, the GI50 [21] was 13.2 µM and the TGI [21] was 65.1 µM. It also gave a GI50 [22] of 17 µM, a TGI [22] of 48.8 µM and a GI50 [23] of 23.6 µM. It also gave a TGI [23] of over 100 µM, a GI50 [24] of 44.3 µM and a TGI [24] of over 100 µM. For the same compound, the GI50 [25] was 14.1 µM, the TGI [25] was over 100 µM and the GI50 [26] was 19.9 µM. For the same compound, the TGI [26] was 57.1 µM, the GI50 [27] was 5.87 µM and the TGI [27] was 68.9 µM. The GI50 [28] was 44.2 µM, the TGI [28] was over 100 µM and the GI50 [29] was over 100 µM. For the same compound, the TGI [29] was over 100 µM, the GI50 [30] was 46.8 µM and the TGI [30] was over 100 µM. The GI50 [31] was 2490 nM, the TGI [31] was 11.1 µM and the GI50 [32] was 22.7 µM. The TGI [32] was over 100 µM, the GI50 [33] was 7.64 µM and the TGI [33] was 20.7 µM. It also gave a GI50 [34] of 14 µM, a TGI [34] of 27 µM and a GI50 [35] of 26.7 µM. It also gave a TGI [35] of over 100 µM, a GI50 [36] of 28.7 µM and a TGI [36] of over 100 µM. The GI50 [37] was 12.5 µM, the TGI [37] was over 100 µM and the GI50 [38] was 2600 nM. The TGI [38] was 34.1 µM, the GI50 [39] was 26.3 µM and the TGI [39] was over 100 µM. The GI50 [40] was 16.5 µM, the TGI [40] was over 100 µM and the GI50 [41] was 49.5 µM. It also gave a TGI [41] of over 100 µM, a GI50 [42] of 14.2 µM and a TGI [42] of 70.2 µM. For the same compound, the GI50 [43] was 85.5 µM, the TGI [43] was over 100 µM and the GI50 [44] was over 100 µM. It also gave a TGI [44] of over 100 µM, a GI50 [45] of 43.3 µM and a TGI [45] of over 100 µM. For the same compound, the GI50 [46] was 94.8 µM, the TGI [46] was over 100 µM and the GI50 [47] was 11 µM. For the same compound, the TGI [47] was 49.4 µM, the GI50 [48] was over 100 µM and the TGI [48] was over 100 µM. It also gave a GI50 [49] of 5.74 µM, a TGI [49] of over 100 µM and a GI50 [50] of 9.14 µM. The TGI [50] was over 100 µM, the GI50 [51] was 21.6 µM and the TGI [51] was 44.8 µM. For the same compound, the GI50 [52] was 16.9 µM, the TGI [52] was 84.4 µM and the GI50 [53] was 24.9 µM. The TGI [53] was 69.2 µM, the GI50 [54] was 36.4 µM and the TGI [54] was over 100 µM. For the same compound, the GI50 [55] was over 100 µM, the TGI [55] was over 100 µM and the GI50 [56] was 25.2 µM. It also gave a TGI [56] of over 100 µM, a GI50 [57] of 11 µM and a TGI [57] of 24.4 µM.
Work on `Cc1ncnc2c1ccn2[C@@H]1C[C@H](Oc2cc(C(F)F)c(F)c3c2CNCC3)[C@@H](O)[C@H]1O` yielded a GI50 [1] of over 100 µM, a TGI [1] of over 100 µM and a GI50 [2] of over 100 µM. For the same compound, the TGI [2] was over 100 µM, the GI50 [3] was over 100 µM and the TGI [3] was over 100 µM. The GI50 [4] was over 100 µM, the TGI [4] was over 100 µM and the GI50 [5] was over 100 µM. For the same compound, the TGI [5] was over 100 µM, the GI50 [6] was over 100 µM and the TGI [6] was over 100 µM. The GI50 [7] was over 100000 nM, the TGI [7] was over 100 µM and the GI50 [8] was over 100 µM. It also gave a TGI [8] of over 100 µM, a GI50 [9] of over 100 µM and a TGI [9] of over 100 µM. It also gave a GI50 [10] of over 100 µM, a TGI [10] of over 100 µM and a GI50 [11] of over 100 µM. For the same compound, the TGI [11] was over 100 µM, the GI50 [12] was over 100 µM and the TGI [12] was over 100 µM. For the same compound, the GI50 [13] was over 100 µM, the TGI [13] was over 100 µM and the GI50 [14] was over 100000 nM. It also gave a TGI [14] of over 100 µM, a GI50 [15] of over 100 µM and a TGI [15] of over 100 µM. It also gave a GI50 [16] of 4.68 µM, a TGI [16] of over 100 µM and a GI50 [17] of over 100 µM. The TGI [17] was over 100 µM, the GI50 [18] was over 100 µM and the TGI [18] was over 100 µM. For the same compound, the GI50 [19] was over 100 µM, the TGI [19] was over 100 µM and the GI50 [20] was over 100 µM. It also gave a TGI [20] of over 100 µM, a GI50 [21] of over 100 µM and a TGI [21] of over 100 µM. It also gave a GI50 [22] of over 100 µM, a TGI [22] of over 100 µM and a GI50 [58] of over 100 µM. It also gave a TGI [58] of over 100 µM, a GI50 [23] of over 100 µM and a TGI [23] of over 100 µM. It also gave a GI50 [24] of over 100 µM, a TGI [24] of over 100 µM and a GI50 [25] of over 100 µM. It also gave a TGI [25] of over 100 µM, a GI50 [26] of over 100 µM and a TGI [26] of over 100 µM. For the same compound, the GI50 [27] was over 100 µM, the TGI [27] was over 100 µM and the GI50 [28] was over 100 µM. The TGI [28] was over 100 µM, the GI50 [30] was over 100 µM and the TGI [30] was over 100 µM. It also gave a GI50 [31] of over 100000 nM, a TGI [31] of over 100 µM and a GI50 [32] of over 100 µM. It also gave a TGI [32] of over 100 µM, a GI50 [33] of over 100 µM and a TGI [33] of over 100 µM. The GI50 [34] was over 100 µM, the TGI [34] was over 100 µM and the GI50 [35] was over 100 µM. The TGI [35] was over 100 µM, the GI50 [36] was over 100 µM and the TGI [36] was over 100 µM. The GI50 [37] was over 100 µM, the TGI [37] was over 100 µM and the GI50 [38] was over 100000 nM. For the same compound, the TGI [38] was over 100 µM, the GI50 [39] was over 100 µM and the TGI [39] was over 100 µM. For the same compound, the GI50 [40] was over 100 µM, the TGI [40] was over 100 µM and the GI50 [41] was over 100 µM. The TGI [41] was over 100 µM, the GI50 [42] was over 100 µM and the TGI [42] was over 100 µM. For the same compound, the GI50 [43] was over 100 µM, the TGI [43] was over 100 µM and the GI50 [44] was over 100 µM. The TGI [44] was over 100 µM, the GI50 [45] was over 100 µM and the TGI [45] was over 100 µM. It also gave a GI50 [46] of over 100 µM, a TGI [46] of over 100 µM and a GI50 [47] of over 100 µM. It also gave a TGI [47] of over 100 µM, a GI50 [48] of over 100 µM and a TGI [48] of over 100 µM. For the same compound, the GI50 [49] was over 100 µM, the TGI [49] was over 100 µM and the GI50 [50] was over 100 µM. For the same compound, the TGI [50] was over 100 µM, the GI50 [51] was over 100 µM and the TGI [51] was over 100 µM. For the same compound, the GI50 [52] was over 100 µM, the TGI [52] was over 100 µM and the GI50 [53] was over 100 µM. The TGI [53] was over 100 µM, the GI50 [54] was over 100 µM and the TGI [54] was over 100 µM. It also gave a GI50 [55] of over 100 µM, a TGI [55] of over 100 µM and a GI50 [56] of over 100 µM. The TGI [56] was over 100 µM, the GI50 [57] was over 100 µM and the TGI [57] was over 100 µM.
